Data: patent publication US20070149547A1, “Bipyridyl amides as modulators of metabotropic glutamate receptor-5” (priority 2004, published 2007)

Each molecule was assayed against T1, hmGluR5a receptor (Homo sapiens, UniProt P41594) (assay: Calcium flux assay (fura-2, glutamate-evoked [Ca2+]i)). Conditions: assay not given; follows the calcium flux / PI statement; read-out: IC50 (mGluR5 inhibitory activity).
T1 construct: expressed in transfected cells; host or cells: HEK293 cells (hm5a cell line)
T1 sequence (P41594 21-1180 isoform P41594-2 limits assumed): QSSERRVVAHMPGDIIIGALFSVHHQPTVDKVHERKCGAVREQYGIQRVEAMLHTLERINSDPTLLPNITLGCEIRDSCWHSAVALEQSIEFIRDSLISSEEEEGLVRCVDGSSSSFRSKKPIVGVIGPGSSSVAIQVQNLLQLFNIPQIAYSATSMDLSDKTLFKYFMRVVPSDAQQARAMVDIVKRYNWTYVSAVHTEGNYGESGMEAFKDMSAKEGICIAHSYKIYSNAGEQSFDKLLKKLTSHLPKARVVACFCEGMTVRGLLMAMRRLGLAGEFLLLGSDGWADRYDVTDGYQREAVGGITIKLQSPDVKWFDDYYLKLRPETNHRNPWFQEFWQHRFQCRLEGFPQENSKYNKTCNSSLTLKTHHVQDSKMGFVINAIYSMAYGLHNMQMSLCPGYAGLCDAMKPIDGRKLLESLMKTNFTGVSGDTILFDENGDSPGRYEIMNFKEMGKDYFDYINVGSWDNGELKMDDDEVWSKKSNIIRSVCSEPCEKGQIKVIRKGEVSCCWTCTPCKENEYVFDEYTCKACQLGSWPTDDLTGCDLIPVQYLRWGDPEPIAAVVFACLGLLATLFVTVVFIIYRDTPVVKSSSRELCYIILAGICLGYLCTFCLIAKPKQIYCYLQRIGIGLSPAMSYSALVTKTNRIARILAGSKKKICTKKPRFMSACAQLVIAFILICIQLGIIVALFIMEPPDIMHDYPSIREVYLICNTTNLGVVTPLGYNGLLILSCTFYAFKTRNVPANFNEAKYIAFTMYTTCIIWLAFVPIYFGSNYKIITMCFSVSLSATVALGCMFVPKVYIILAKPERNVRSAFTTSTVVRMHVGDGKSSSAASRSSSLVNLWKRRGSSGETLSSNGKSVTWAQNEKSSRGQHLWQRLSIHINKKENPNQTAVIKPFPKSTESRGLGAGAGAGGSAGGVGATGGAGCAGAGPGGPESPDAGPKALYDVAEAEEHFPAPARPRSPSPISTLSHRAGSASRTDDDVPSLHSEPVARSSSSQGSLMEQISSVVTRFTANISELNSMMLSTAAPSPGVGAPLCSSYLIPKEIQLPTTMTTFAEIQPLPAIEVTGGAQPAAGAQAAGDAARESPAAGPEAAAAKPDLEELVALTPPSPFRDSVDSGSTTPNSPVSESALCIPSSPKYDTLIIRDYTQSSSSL
Assay type: cell-based
Protocol: The compounds of this invention were tested against the hmGluR5a receptor stably expressed in mouse fibroblast Ltk^− cells (the hmGluR5a/L38-20 cell line) and activity was detected by changes in [Ca^++]i, measured using the fluorescent Ca^++-sensitive dye, fura-2. InsP assays were performed in mouse fibroblast Ltk^− cells (LM5a cell line) stably expressing hmGluR5a. The assays described in International Patent Publication WO 0116121 can be used.
The activity of compounds was examined against the hmGluR5a receptor stably expressed in human embryonic kidney HEK293 cells (the hmGluR5a cell line designated hm5a). See generally Daggett et al., Neuropharmacology 34:871-886 (1995). Receptor activity was detected by changes in intracellular calcium ([Ca^2+]i) measured using the fluorescent calcium-sensitive dye, fura-2. The hm5a cells were plated onto 96-well plates, and loaded with 3 µM fura-2 for 1 h. Unincorporated dye was washed from the cells, and the cell plate was transferred to a 96-channel fluorimeter (SIBIA-SAIC, La Jolla, Calif.) which is integrated into a fully automated plate handling and liquid delivery system. Cells were excited at 350 and 385 nm with a xenon source combined with optical filters. Emitted light was collected from the sample through a dichroic mirror and a 510 nm interference filter and directed into a cooled CCD camera (Princeton Instruments). Image pairs were captured approximately every 1 s, and ratio images were generated after background subtraction. After a basal reading of 20 s, an EC80 concentration of glutamate (10 µM) was added to the well, and the response evaluated for another 60 s. The glutamate-evoked increase in [Ca′]i in the presence of the screening compound was compared to the response of glutamate alone (the positive control).
Work on N#Cc1cccc(NC(=O)c2nc(Cl)cnc2N)n1 [Example 29, 3-Amino-6-chloro-N-(6-cyanopyridin-2-yl)pyrazine-2-carboxamide] yielded an IC50 of 500 nM. Molecule Nc1nc(C(F)(F)F)cnc1C(=O)Nc1ccccn1 [Example 38, 3-Amino-N-pyridin-2-yl-5-(trifluoromethyl)pyrazine-2-carboxamide] has an IC50 of 1300 nM. With Cc1cccc(C(=O)Nc2cccc(-c3ccccc3)n2)n1 [Example 58, 6-Methyl-N-(6-phenylpyridin-2-yl)pyridine-2-carboxamide] the IC50 was 3000 nM.
